US11612595B2, “Compositions and methods for treating rheumatoid arthritis” (Generos Biopharma Ltd., priority 2017, dated 2023)

Assays:
SH2 domain of STAT1 = target: T1, SH2 domain of STAT1 (Homo sapiens, UniProt P42224); settings: read-out: IC50 towards the SH2 domain of STAT1; cited from earlier work
T1 sequence (P42224 1-750): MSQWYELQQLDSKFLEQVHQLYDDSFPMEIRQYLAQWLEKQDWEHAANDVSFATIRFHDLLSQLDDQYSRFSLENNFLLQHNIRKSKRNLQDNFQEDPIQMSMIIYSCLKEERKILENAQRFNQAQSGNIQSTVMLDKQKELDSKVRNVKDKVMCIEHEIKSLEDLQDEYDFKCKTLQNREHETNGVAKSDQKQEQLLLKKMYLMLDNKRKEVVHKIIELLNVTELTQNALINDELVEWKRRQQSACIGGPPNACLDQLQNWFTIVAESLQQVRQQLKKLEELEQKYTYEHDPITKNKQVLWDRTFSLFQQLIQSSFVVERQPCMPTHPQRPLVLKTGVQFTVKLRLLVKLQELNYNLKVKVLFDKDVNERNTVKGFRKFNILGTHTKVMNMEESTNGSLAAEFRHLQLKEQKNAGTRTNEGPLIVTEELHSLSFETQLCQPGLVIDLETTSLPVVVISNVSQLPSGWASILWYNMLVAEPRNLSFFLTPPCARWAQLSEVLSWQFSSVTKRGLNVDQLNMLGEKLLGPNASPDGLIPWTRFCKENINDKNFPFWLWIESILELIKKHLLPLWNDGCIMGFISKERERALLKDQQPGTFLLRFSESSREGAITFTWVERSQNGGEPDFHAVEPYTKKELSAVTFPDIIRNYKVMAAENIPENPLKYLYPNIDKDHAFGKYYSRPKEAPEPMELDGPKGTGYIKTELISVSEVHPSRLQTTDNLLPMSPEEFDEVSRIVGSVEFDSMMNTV

STAT5 = target: T2, STAT5 (Homo sapiens, UniProt P42229+P51692); parameters: in Bcr-Abl+ K562 and KU812 cultures; endogenous in cells; host or cells: K562 and KU812 cells; settings: cited from earlier work
T2 sequence (P42229 1-794): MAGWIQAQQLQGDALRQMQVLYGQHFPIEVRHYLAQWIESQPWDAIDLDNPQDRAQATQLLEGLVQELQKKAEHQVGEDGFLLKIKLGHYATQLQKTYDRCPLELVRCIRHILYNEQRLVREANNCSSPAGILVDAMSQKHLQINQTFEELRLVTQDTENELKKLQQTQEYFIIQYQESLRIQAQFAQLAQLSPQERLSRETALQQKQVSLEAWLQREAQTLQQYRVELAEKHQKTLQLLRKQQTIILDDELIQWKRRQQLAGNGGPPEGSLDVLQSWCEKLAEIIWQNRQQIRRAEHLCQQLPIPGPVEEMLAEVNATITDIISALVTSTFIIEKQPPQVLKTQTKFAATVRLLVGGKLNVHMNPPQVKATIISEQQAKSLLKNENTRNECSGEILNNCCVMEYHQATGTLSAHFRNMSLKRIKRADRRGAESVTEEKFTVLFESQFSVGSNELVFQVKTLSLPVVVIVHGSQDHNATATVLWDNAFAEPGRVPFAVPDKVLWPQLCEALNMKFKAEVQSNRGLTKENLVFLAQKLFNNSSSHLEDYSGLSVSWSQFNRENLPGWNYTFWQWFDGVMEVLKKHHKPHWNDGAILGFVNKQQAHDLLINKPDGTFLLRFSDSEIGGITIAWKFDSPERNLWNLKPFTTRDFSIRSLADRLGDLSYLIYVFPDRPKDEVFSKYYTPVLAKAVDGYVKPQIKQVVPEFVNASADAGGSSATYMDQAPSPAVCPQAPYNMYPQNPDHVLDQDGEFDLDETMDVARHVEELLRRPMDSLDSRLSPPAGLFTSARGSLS
T2 sequence (P51692 1-787): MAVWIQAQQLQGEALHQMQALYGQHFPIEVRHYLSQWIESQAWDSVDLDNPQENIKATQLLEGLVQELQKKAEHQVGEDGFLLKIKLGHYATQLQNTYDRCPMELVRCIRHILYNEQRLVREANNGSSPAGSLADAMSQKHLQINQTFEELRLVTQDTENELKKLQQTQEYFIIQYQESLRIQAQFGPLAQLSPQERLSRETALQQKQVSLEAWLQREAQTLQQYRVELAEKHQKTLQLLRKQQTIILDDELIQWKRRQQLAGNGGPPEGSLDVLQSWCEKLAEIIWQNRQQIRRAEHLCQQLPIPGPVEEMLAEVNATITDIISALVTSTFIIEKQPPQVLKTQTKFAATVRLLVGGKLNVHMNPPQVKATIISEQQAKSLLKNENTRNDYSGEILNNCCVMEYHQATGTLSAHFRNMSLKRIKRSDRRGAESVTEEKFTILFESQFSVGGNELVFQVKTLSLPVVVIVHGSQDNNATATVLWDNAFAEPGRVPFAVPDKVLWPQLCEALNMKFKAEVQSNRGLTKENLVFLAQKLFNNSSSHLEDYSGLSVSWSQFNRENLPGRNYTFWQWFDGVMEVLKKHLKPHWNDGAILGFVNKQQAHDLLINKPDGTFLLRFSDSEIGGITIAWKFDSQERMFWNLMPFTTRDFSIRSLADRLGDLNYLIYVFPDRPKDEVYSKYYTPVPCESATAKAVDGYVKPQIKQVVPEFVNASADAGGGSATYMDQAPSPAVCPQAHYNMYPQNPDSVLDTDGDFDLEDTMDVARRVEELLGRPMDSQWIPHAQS

AIA mouse model = AIA mouse model (mBSA-induced knee arthritis); format: in vivo, mice (C57BL/6); settings: 10 mg/kg intraperitoneal
Method: This example describes a method of RA treatment with pimozide in a AIA mouse model. The right knees of fourteen mice (C57BL/6) were immunized with mBSA injection on the right knee to induce arthritis, while the left knees were used as control. Nine of the mice was then treated with pimozide. Specifically, pimozide was dissolved in DMSO at a concentration of 50 mg/ml, and then diluted in 30% PEG300 (Sigma) for intraperitoneal injection at 10 mg/kg dose. The remaining five mice were treated with vehicle DMSO that is diluted in 30% PEG300 for intraperitoneal injection. After 7 days, the mice were sacrificed and knees were dissected and fixed in 10% formalin and decalcified in 5% formic acid before dehydration and embedding in paraffin followed by standard hematoxylin and eosin (H&E) stain procedure.

| Compound | IC50 (SH2 domain of STAT1) [µM] | STAT5 transcription activity (STAT5; 5 μM for 18 h, Bcr-Abl+ K562 and KU812 cultures) | expression of STAT5 target genes (STAT5; CML cell lines) | infiltration of immune cells in knee cavity (H&E staining) (AIA mouse model; after 7 days, vs vehicle) | knee diameter differences (right knee vs left knee) (AIA mouse model; vs vehicle group) |
| --- | --- | --- | --- | --- | --- |
| O=C(N/N=C/c1coc2ccccc2c1=O)c1cccnc1 [nicotinohydrazide, N′-((4-Oxo-4H-chromen-3-yl)methylene)nicotinohydrazide] | > 500 |  |  |  |  |
| O=c1[nH]c2ccccc2n1C1CCN(CCCC(c2ccc(F)cc2)c2ccc(F)cc2)CC1 [pimozide, 1-[1-[4,4-bis(4-fluorophenyl)butyl]-4-piperidinyl]-1,3-dihydro-2H-benzimidazole-2-one] |  | inhibits | decreased | reduced infiltration of immune cells | significantly smaller |
